Measurements as given in article PMC6036132, “In Silico Workflow for the Discovery of Natural Products Activating the G Protein-Coupled Bile Acid Receptor 1” (Frontiers in Chemistry, 2018).

Target: T1, G protein-coupled bile acid receptor 1 (GPBAR1) (Homo sapiens, UniProt Q8TDU6)
T1 construct: full-length GPBAR1 expression plasmid (Origene), transiently transfected in HEK 293T cells with CRE-Luc and EGFP plasmids
T1 sequence (Q8TDU6 1-330): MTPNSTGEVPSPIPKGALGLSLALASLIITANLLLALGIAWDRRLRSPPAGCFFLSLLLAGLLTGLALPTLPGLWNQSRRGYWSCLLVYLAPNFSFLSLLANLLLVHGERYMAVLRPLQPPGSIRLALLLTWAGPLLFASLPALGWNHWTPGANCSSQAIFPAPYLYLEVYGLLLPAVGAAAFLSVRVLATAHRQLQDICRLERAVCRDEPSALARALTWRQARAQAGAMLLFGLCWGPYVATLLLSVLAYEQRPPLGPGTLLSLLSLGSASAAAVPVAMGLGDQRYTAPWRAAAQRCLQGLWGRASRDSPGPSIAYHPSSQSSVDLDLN
Test: CRE-luciferase reporter assay in transfected HEK […] cells, EGFP-normalised
Type: cell-based
Conditions: agonist; 18 h; relative to 10 μM LCA = 100%

## C[C@H](CCC(=O)O)[C@H]1CC[C@H]2[C@@H]3[C@H](O)C[C@@H]4C[C@H](O)CC[C@]4(C)[C@H]3CC[C@]12C [compound 3, chenodeoxycholic acid]
  Activity (at 5 μM): 66.69 ± 8.72%
